Measured values: US20140332384A1, “BIOMARKERS RELATED WITH A SUPRA-N[…] STATE OF SELENIUM AND DIAGNOSIS METHOD IN WHICH SAID […] IDENTIFIED” (UNIVERSIDAD DE SANTIAGO DE CHILE, priority 2011, published 2014)
Values joined by “and” are separate entries in the source; they are usually repeats but may differ in a detail not shown here. Identical values can stand only once.

Columns and labels:
[1] = cited from earlier work
[2] = Growth of rats based on their body weight; conditions: 10 weeks; for Final body weight: in g (unit assumed)
Procedure: As illustrated in the various embodiments and examples provided herein, the protein pattern was obtained using blood plasma from Wistar rats, bred in three groups of 8 rats, 21 days of age (4 females and 4 males) each. […] The animals had free access to deionized water and received the respective diet ad libitum. […]
The animals were kept in stainless steel cages at a controlled temperature equal to 20° C., using 12 hours day/night cycles. After the experimental period (10 weeks), blood samples were collected from each animal by cardiac punction, using standard protocols in heparin tubes. The tubes were inverted 10 times, and immediately placed in an ice bath. The tubes were centrifuged at 1300 RCF at 4° C. during 10 minutes. The plasma was separated from the solids. The supernatant was transferred to a fresh centrifuge tube and was centrifuged at 2400 RCF at 4° C. for 15 minutes. Finally, plasma samples were stored at −80° C. until they were analysed.
The growth of rats for each group was controlled.

[3] = tested on: blood plasma proteins of basic isoelectric point (bands R-2 to R-15); assay: Protein pattern of blood plasma of an individual treated with dietary supplement seleno methylselenocysteine (Example 2); format: in vivo
Source text: The samples must pass through the stages A and B as described in the preparation of the pattern.
Step C: Comparing the protein pattern of the reference.
It compares the SDS-PAGE gel of the sample collected and treated with the protein pattern characteristic of a supranutritional intake of a trace element, in this case, the organic form of selenium as provided in seleno-methyl-selenocysteine, and evaluating the presence of the same bands and its relative abundance in each of the bands.
A statistical analysis (t-Student with an interval of 95%) is performed to detect significant differences between the relative abundance of the corresponding protein bands between the sample and pattern.
A sample of plasma from an individual who has undergone treatment with a nutritional dietary supplement seleno methylselenocysteine. This plasma sample was subject to the methodology described above, and the following were the results.
For comparison, Student's t-test with a confidence interval of 95% confidence was used. […] The interpretation of the results, based on the methodology would be as follows.

[4] = tested on: blood plasma proteins of basic isoelectric point (bands R-2 to R-15); assay: Protein pattern of blood plasma proteins of basic isoelectric point (SDS-PAGE, densitometry) in rats fed supplemented diets; format: in vivo, Wistar rats
Procedure: The plasma was separated from the solids.
For the preparation of the pattern used, individual plasma samples were analyzed by SDS electrophoresis in polyacrylamide gel according to standard protocols. Prior to electrophoretic analysis, plasma samples were fractioned by “batch” adsorption using an ion exchange resin at pH 7.5. The adsorbed fraction was recovered and analyzed by SDS polyacrylamide gel.
A calibration curve was prepared loading five solutions of different concentrations (0, 0.4, 0.6, 0.8, and 1 mg/ml) [XAOG1]·[A2] of bovine serum albumin (as protein standard) in a polyacrylamide gel, and performing SDS-PAGE analysis under the same conditions and with the same protocol as used to analyse the plasma samples. In each lane a single major band was detected, and between the each lane different band intensity was observed due to the different concentration of the protein loaded (FIGS. 2-5). The optical density of each band was determined, as the protein concentration was known in each solution loaded in the different lanes, a linear equation was drawn which correlates the concentration with the intensity of the bands.
The concentration of protein was quantified in each band via optical densitometry and subsequent interpolation in the calibration curve. The concentration average and standard deviation for each band was calculated, considering the 8 samples of each group (controls and experimental). A comparison was made using the Student statistical t-test with a confidence interval 95% to detect significant differences in each band between the experimental and control groups.
The reference pattern for protein corresponds to the set of plasma proteins of basic isoelectric point obtained and separated by the following methodology.
Stage A: Chromatographic Fractionation of Plasma Proteins Basic Isoelectric Point.
1. Resuspend the cationic exchange resin, carefully turning the package containing the resin. When total homogenization is achieved, a certain volume of suspension is taken, between 50 and 500 μL, preferably between 50 and 200 μL, more preferably 100 μL.
2. Mix in a microcentrifuge tube around 50 to 500 μL, preferably between 50 and 200 μL, more preferably 100 μL of plasma with a 1:9 proportional amount of buffer pH 7.5, until a ionic strength equal to 0.1M, is attained, this is if you take 100 μL of plasma, 900 μL buffer must be added to achieve a 1:10 dilution, and obtain a plasma protein solution with an ionic strength equivalent to 0.09 to 0.1M of NaCl.
3. To prepare the cationic exchange resin, it is necessary to decant the resin from the original suspension volume, discarding the supernatant and washing the resin by adding an amount equivalent to the discarded supernatant buffer pH 7.5 plus 0.1M NaCl, repeating the procedure 3 times.
The protein sample obtained from stage 2 is added and mixed gently homogenizing it for 30 minutes and the resin is separated from the supernatant, the supernatant is discarded and the resin is washed with the same volume of pH 7.5 buffer plus 0.1M NaCl, three times. The adsorbed proteins are eluted by adding a suitable volume, preferably between 40 and 80 μL, more preferably 50 µL of pH 7.5 buffer over 1M NaCl, homogenized, the resin is separated from the supernatant, and finally supernatant is recuperated, which corresponds to the fraction of plasma proteins with a basic isoelectric point.
Stage B: Electrophoretic separation of plasma proteins of a basic isoelectric point.
A 12% polyacrylamide gel is prepared, according to standard protocols. A 20 μl of the sample obtained in item 3 and 5 μL of loading buffer (standard composition for SDS analysis) is subject to denaturation by heat. The denatured mixture is loaded into a lane and the electrophoretic run is performed, for a total of 160 Vh. The electrophoresis system is disassembled and the gel is recovered. […]

[5] = Sodium Selenate (1.5 μg) diet, females, average
[6] = Sodium Selenate (1.5 μg) diet, females, individual rats
[7] = Sodium Selenate (1.5 μg) diet, group average
[8] = Sodium Selenate (1.5 μg) diet, males, average
[9] = Sodium Selenate (1.5 μg) diet, males, individual rats
[10] = Sodium Selenate (1.9 μg) diet, females, average
[11] = Sodium Selenate (1.9 μg) diet, females, individual rats
[12] = Sodium Selenate (1.9 μg) diet, group average
[13] = Sodium Selenate (1.9 μg) diet, males, average
[14] = Sodium Selenate (1.9 μg) diet, males, individual rats
[15] = rat blood plasma, basic isoelectric point fraction, diet with 1.9 μg SMSeC per gram, 10 weeks, average ± standard deviation, [UA] in Tables 4, 5
[16] = rats fed 1.9 μg seleno-methyl-selenocysteine per g of diet, Student t-test, confidence interval 95%
[17] = SMSeC (1.9 μg) diet, females, average
[18] = SMSeC (1.9 μg) diet, females, individual rats
[19] = SMSeC (1.9 μg) diet, group average
[20] = SMSeC (1.9 μg) diet, males, average
[21] = SMSeC (1.9 μg) diet, males, individual rats

[Se] [selenium]
Maximum Tolerable Intake ([1]; adult women and adult men): 400 µg/day | Selenium content of a food diet that could produce toxic effects ([1]; estimated, per kg of food diet): more than 1 mg per kg

O=[Se](=O)(O)O [Sodium Selenate, sodium selenate]
Delta body weight [2, 5]: 151.1 | Final body weight [2, 5]: 199.5 | Delta body weight [2, 6]: 141.6 and 135.5 and 139.3 and 187.8 | Final body weight [2, 6]: 189.8 and 184.2 and 188.3 and 235.7 | Delta body weight [2, 7]: 207.8 | Final body weight [2, 7]: 256.7 | Delta body weight [2, 8]: 264.6 | Final body weight [2, 8]: 313.8 | Delta body weight [2, 9]: 266.6 and 275.8 and 271.2 and 244.9 | Final body weight [2, 9]: 316.8 and 326.3 and 318.5 and 293.5 | Delta body weight [2, 10]: 161.2 | Final body weight [2, 10]: 209.7 | Delta body weight [2, 11]: 180.4 and 161.3 and 145.1 and 158.1 | Final body weight [2, 11]: 228.6 and 210 and 194.1 and 206 | Delta body weight [2, 12]: 218.0 | Final body weight [2, 12]: 266.9 | Delta body weight [2, 13]: 274.8 | Final body weight [2, 13]: 324 | Delta body weight [2, 14]: 293.1 and 278.3 and 291.9 and 235.9 | Final body weight [2, 14]: 343.3 and 328.8 and 339.2 and 284.5

C[Se]C[C@H](N)C(=O)O [SMSeC, seleno-methyl-selenocysteine]
Relative abundance [UA] of the individual, band R-2 [3]: 29498.0 ± 3911.5 UA | Relative abundance [UA] of the individual, band R-3 [3]: 22594.0 ± 4569.2 UA | Relative abundance [UA] of the individual, band R-4 [3]: 21994.3 ± 4211.0 UA | Relative abundance [UA] of the individual, band R-5 [3]: 25682.7 ± 3620.9 UA | Relative abundance [UA] of the individual, band R-6 [3]: 30751.3 ± 2974.0 UA | Relative abundance [UA] of the individual, band R-7 [3]: 37560.8 ± 2955.7 UA | Relative abundance [UA] of the individual, band R-8 [3]: 28124.3 ± 6466.9 UA | Relative abundance [UA] of the individual, band R-9 [3]: 41211.3 ± 5952.4 UA | Relative abundance [UA] of the individual, band R-10 [3]: 14666.6 ± 3087.2 UA | Relative abundance [UA] of the individual, band R-11 [3]: 13964.4 ± 1750.0 UA | Relative abundance [UA] of the individual, band R-12 [3]: 52073.0 ± 4308.2 UA | Relative abundance [UA] of the individual, band R-13 [3]: 15414.1 ± 5568.9 UA | Relative abundance [UA] of the individual, band R-14 [3]: 41436.1 ± 2906.9 UA | Relative abundance [UA] of the individual, band R-15 [3]: 12009.5 ± 6939.5 UA | Relative abundance of band R-2 (H inhibitory factor complement) of the pattern [4, 15]: 28498 ± 3911.5 arbitrary units | Relative abundance of band R-3 (H inhibitory factor complement) of the pattern [4, 15]: 20594.0 ± 4569.2 arbitrary units | Relative abundance of band R-4 (CRA f isophorm plasminogen) of the pattern [4, 15]: 21804.3 ± 4211.0 arbitrary units | Relative abundance of band R-5 (LOC366747 Protein) of the pattern [4, 15]: 24582.7 ± 3620.9 arbitrary units | Relative abundance of band R-6 (4a component complement) of the pattern [4, 15]: 29751.3 ± 2974.0 arbitrary units | Relative abundance of band R-7 (Albumina) of the pattern [4, 15]: 37380.8 ± 2955.7 arbitrary units | Relative abundance of band R-8 (Da 1-24) of the pattern [4, 15]: 27224.3 ± 6466.9 arbitrary units | Relative abundance of band R-9 (2C chainCregion Ig Gamma) of the pattern [4, 15]: 40411.3 ± 5952.4 arbitrary units | Relative abundance of band R-10 (Precursor β-2-glicoprotein 1) of the pattern [4, 15]: 14366.6 ± 3087.2 arbitrary units | Relative abundance of band R-11 (2A Region C Ig Gamma chain) of the pattern [4, 15]: 14644.4 ± 1750.0 arbitrary units and 14064.4 ± 1750.0 arbitrary units | Relative abundance of band R-12 (4a component complement) of the pattern [4, 15]: 51973.0 ± 4308.2 arbitrary units | Relative abundance of band R-13 (Heavy chain H4 inter α inhibitor) of the pattern [4, 15]: 13414.1 ± 5568.9 arbitrary units | Relative abundance of band R-14 (Ig Kappa precursor) of the pattern [4, 15]: 40436.1 ± 2906.9 arbitrary units | Relative abundance of band R-15 (H apolipoprotein) of the pattern [4, 15]: 11309.5 ± 6939.5 arbitrary units | Concentration of protein in band R-10 compared with basal diet plus 0.15 μg sodium selenate per gram of diet [4, 16]: significantly higher | Concentration of protein in band R-11 compared with basal diet plus 0.15 μg sodium selenate per gram of diet [4, 16]: significantly higher | Concentration of protein in band R-12 compared with basal diet plus 0.15 μg sodium selenate per gram of diet [4, 16]: significantly higher | Concentration of protein in band R-13 compared with basal diet plus 0.15 μg sodium selenate per gram of diet [4, 16]: significantly higher | Concentration of protein in band R-15 compared with basal diet plus 0.15 μg sodium selenate per gram of diet [4, 16]: significantly higher | Concentration of protein in band R-3 compared with both control groups ([4]; rats fed 1.9 μg seleno-methyl-selenocysteine per gram of diet, Student t-test, confidence interval 95%): significantly higher | Delta body weight [2, 17]: 168.3 | Final body weight [2, 17]: 216.7 | Delta body weight [2, 18]: 161.1 and 160.2 and 172.4 and 179.3 | Final body weight [2, 18]: 208.6 and 210.3 and 222.2 and 225.5 | Delta body weight [2, 19]: 211.5 | Final body weight [2, 19]: 260.4 | Delta body weight [2, 20]: 254.7 | Final body weight [2, 20]: 304 | Delta body weight [2, 21]: 245.1 and 256.8 and 275.8 and 241.0 | Final body weight [2, 21]: 296.5 and 308.7 and 322.6 and 287.9
